≈ marks a conversion by molar mass, not a printed value.
Experiments:
E. Coli = assay: Antibiotic activity, MIC; type: cell-based; conditions: for MIC: Escherichia coli
S. aureus = assay: Antibiotic activity, MIC; type: cell-based; conditions: for MIC: Staphylococcus aureus
C. albicans = assay: Antibiotic activity, MIC; type: cell-based; conditions: for MIC: Candida albicans
chick embryo = assay: Chick embryo diss. assay (Table II); type: in vivo
Experimental: Using the chick embryo vitelline capillaries assay, compounds were tested for their ability to induce capillary regression. Each compound was applied in 0.1 ml of 15% Ficol 400 and PBS onto the embryo, and vascular regression was assessed after 60 minutes.

Xenopus tadpoles = assay: Tadpole assay; conditions: Xenopus tadpole assay

SMILES	MIC (E. Coli) [µg/mL]	MIC (S. aureus) [µg/mL]	MIC (C. albicans) [µg/mL]	functional similarity in tadpole assay (Xenopus tadpoles)	also measured
COC(=O)CCC(C)[C@H]1CCC2C3C[C@@H](O)[C@H]4C[C@H](NCCCNCCCCNCCCN)CC[C@]4(C)C3CC[C@@]21C (stereo partly drawn)	32 (≈ 54.2 µM)	2 to 4 (≈ 3.38 to 6.77 µM)	4 (≈ 6.77 µM)	–	–
CC(CCC(=O)O)[C@H]1CCC2C3C[C@@H](O)[C@H]4C[C@@H](NCCN)CC[C@]4(C)C3CC[C@@]21C (stereo partly drawn) [drawing 69]	> 256	> 256	> 256	–	–
CC(CCC(=O)O)[C@H]1CCC2C3CC[C@@H]4C[C@H](NCCN)CC[C@]4(C)C3C[C@H](O)[C@@]21C (stereo partly drawn) [drawing 115]	–	–	–	–	Minimum Effective Concentration, chick embryo diss. assay (chick embryo): > 1 µg
COC(=O)CCC(C)[C@H]1CCC2C3C[C@@H](O)[C@H]4C[C@@H](NCCCNCCCCNCCCN)CC[C@]4(C)C3CC[C@@]21C (stereo partly drawn) [drawing 77]	32 (≈ 54.2 µM)	2 (≈ 3.38 µM)	2 (≈ 3.38 µM)	–	–
C[C@H](CCC(=O)O)[C@H]1CC[C@H]2[C@@H]3C[C@@H](O)[C@H]4C[C@@H](NCCN)CC[C@]4(C)[C@H]3CC[C@]12C [Compound 433]	–	–	–	functionally similar to compound 1437	–
COC(=O)CCC(C)[C@H]1CCC2C3C[C@@H](O)[C@H]4C[C@@H](NCCN)CC[C@]4(C)C3CC[C@@]21C (stereo partly drawn)	8 to 16 (≈ 17.8 to 35.7 µM)	1 (≈ 2.23 µM)	2 to 4 (≈ 4.46 to 8.91 µM)	–	–
COC(=O)CC[C@@H](C)[C@H]1CC[C@H]2[C@@H]3[C@H](O)C[C@@H]4C[C@H](NCCN)CC[C@]4(C)[C@H]3CC[C@]12C [Compound 410]	–	–	–	functionally similar to compound 1437	–
COC(=O)CCC(C)[C@H]1CCC2C3CC[C@@H]4C[C@H](NCCCNCCCCNCCCN)CC[C@]4(C)C3C[C@H](O)[C@@]21C (stereo partly drawn) [drawing 72]	16 (≈ 27.1 µM)	2 (≈ 3.38 µM)	8 (≈ 13.5 µM)	–	–
CC(CCC(=O)O)[C@H]1CCC2C3C(CC[C@@]21C)[C@@]1(C)CC[C@@H](NCCN)C[C@H]1C[C@H]3O (stereo partly drawn)	64 (≈ 147 µM)	32 (≈ 73.6 µM)	64 (≈ 147 µM)	–	–
COC(=O)CC[C@@H](C)[C@H]1CC[C@H]2[C@@H]3CC[C@H]4C[C@@H](NCCCNCCCCNCCCN)CC[C@]4(C)[C@H]3CC[C@]12C [Compound 459]	–	–	–	pharmacologic activity similar to that seen for FX 3	–
C[C@H](CCC(=O)O)[C@H]1CC[C@H]2[C@@H]3[C@H](O)C[C@@H]4C[C@@H](NCCCNCCCCNCCCN)CC[C@]4(C)[C@H]3CC[C@]12C [drawing 62]	256 (≈ 444 µM)	8 (≈ 13.9 µM)	32 (≈ 55.5 µM)	–	–
CC(C)CCC[C@@H](C)[C@H]1CC[C@H]2[C@@H]3CC[C@H]4C[C@H](NCCCN5CCCCN=C5N)CC[C@]4(C)[C@H]3CC[C@]12C	–	–	–	–	MIC Values (E. Coli): > 256 µg/mL; MIC Values (S. aureus): 2 µg/mL (≈ 3.7 µM); MIC Values (C. albicans): 32 µg/mL (≈ 59.2 µM)
CC(COS(=O)(=O)O)C(=O)CC[C@@H](C)[C@H]1CC[C@H]2[C@@H]3[C@H](O)C[C@H]4C[C@@H](NCCCNCCCCN)CC[C@]4(C)[C@H]3CC[C@]12C (stereo partly drawn)	–	8 (≈ 12.5 µM)	–	–	–
C=C(C)C(=O)CCC(C)[C@H]1CCC2C3C(CC[C@@]21C)[C@@]1(C)CC[C@H](NCCCNCCCCN)C[C@@H]1C[C@H]3O (stereo partly drawn)	32 (≈ 58.8 µM)	4 (≈ 7.35 µM)	4 (≈ 7.35 µM)	–	–
CC(CCC(=O)O)[C@H]1CCC2C3C[C@@H](O)[C@H]4C[C@@H](NCCCNCCCCNCCCN)CC[C@]4(C)C3CC[C@@]21C (stereo partly drawn)	16 (≈ 27.7 µM)	16 (≈ 27.7 µM)	4 (≈ 6.93 µM)	–	–
COC(=O)CCC(C)[C@H]1CCC2C3CC[C@H]4C[C@@H](NCCCNCCCCNCCCN)CC[C@]4(C)C3CC[C@@]21C (stereo partly drawn) [drawing 75]	32 (≈ 55.7 µM)	1 to 2 (≈ 1.74 to 3.48 µM)	2 (≈ 3.48 µM)	–	–
CC(C)CCCC(C)[C@H]1CCC2C3C(CC[C@@]21C)[C@@]1(C)CC[C@@H](NCCCNCCCCN)C[C@@H]1C[C@H]3O (stereo partly drawn) [drawing 56]	32 (≈ 60.2 µM)	4 (≈ 7.52 µM)	2 (≈ 3.76 µM)	–	–
COC(=O)CC[C@@H](C)[C@H]1CC[C@H]2[C@@H]3CC[C@H]4C[C@H](NCCCNCCCCNCCCN)CC[C@]4(C)[C@H]3CC[C@]12C [Compound 458]	–	–	–	pharmacologic activity similar to that seen for FX 3	–
COC(=O)CCC(C)[C@H]1CCC2C3C(CC[C@@]21C)[C@@]1(C)CC[C@H](NCCN)C[C@H]1C[C@H]3O (stereo partly drawn) [drawing 58]	64 (≈ 143 µM)	32 (≈ 71.3 µM)	16 (≈ 35.7 µM)	–	–
COC(=O)CC[C@@H](C)[C@H]1CC[C@H]2[C@@H]3C[C@@H](O)[C@H]4C[C@H](NCCCNCCCCNCCCN)CC[C@]4(C)[C@H]3CC[C@]12C [Compound 465]	–	–	–	pharmacologic activity similar to that seen for FX 3	–

SMILES	MIC (E. Coli) [µg/mL]	MIC (S. aureus) [µg/mL]	MIC (C. albicans) [µg/mL]	functional similarity in tadpole assay (Xenopus tadpoles)	also measured
CC(C)CCCC(C)[C@H]1CCC2C3C(CC[C@@]21C)[C@@]1(C)CC[C@H](NCCCNCCCCN)C[C@@H]1C[C@H]3O (stereo partly drawn) [drawing 57]	64 (≈ 120 µM)	4 (≈ 7.52 µM)	2 (≈ 3.76 µM)	–	–
COC(=O)CC[C@@H](C)[C@H]1CC[C@H]2[C@@H]3C[C@@H](O)[C@H]4C[C@H](NCCN)CC[C@]4(C)[C@H]3CC[C@]12C [Compound 431]	–	–	–	functionally similar to compound 1437	–
CC(C)CCC[C@@H](C)[C@H]1CC[C@H]2[C@@H]3[C@H](O)C[C@H]4C[C@H](N)CC[C@]4(C)[C@H]3CC[C@]12C [Compound 1363]	–	–	–	pharmacologic activity similar to Fraction 1	potency in tadpole assay relative to Fraction 1 (Xenopus tadpoles): potencies comparable to that of Fraction 1
COC(=O)CCC(C)[C@H]1CCC2C3C(CC[C@@]21C)[C@@]1(C)CC[C@H](NCCCNCCCCNCCCN)C[C@H]1C[C@H]3O (stereo partly drawn) [drawing 60]	64 (≈ 108 µM)	8 (≈ 13.5 µM)	2 (≈ 3.38 µM)	–	–
CC(C)CCCC(C)[C@H]1CCC2C3C(CC[C@@]21C)[C@@]1(C)CC[C@H](N)C[C@@H]1C[C@H]3O (stereo partly drawn) [drawing 55]	> 256	2 (≈ 4.95 µM)	2 (≈ 4.95 µM)	–	–
CC(C)CCC[C@@H](C)[C@H]1CC[C@H]2[C@@H]3[C@H](O)C[C@H]4C[C@H](NCCCNCCCCN)CC[C@]4(C)[C@H]3CC[C@]12C [Compound 370]	–	–	–	pharmacologic activity similar to that seen for FX 3	–
CC(CCC(=O)O)[C@H]1CCC2C3CC[C@@H]4C[C@H](NCCCNCCCCNCCCN)CC[C@]4(C)C3C[C@H](O)[C@@]21C (stereo partly drawn) [drawing 73]	8 to 16 (≈ 13.9 to 27.7 µM)	4 (≈ 6.93 µM)	4 (≈ 6.93 µM)	–	–
COC(=O)CC[C@@H](C)[C@H]1CC[C@H]2[C@@H]3C[C@@H](O)[C@H]4C[C@@H](NCCN)CC[C@]4(C)[C@H]3CC[C@]12C [Compound 432]	–	–	–	functionally similar to compound 1437	–
CC(C)CCC[C@@H](C)[C@H]1CC[C@H]2[C@@H]3[C@H](O)C[C@H]4C[C@@H](NCCCNCCCCN)CC[C@]4(C)[C@H]3CC[C@]12C [Compound 371]	–	–	–	effects like those produced by compound 1436	–
COC(=O)CCC(C)[C@H]1CCC2C3CC[C@H]4C[C@H](NCCCNCCCCNCCCN)CC[C@]4(C)C3CC[C@@]21C (stereo partly drawn) [drawing 74]	32 (≈ 55.7 µM)	4 (≈ 6.96 µM)	2 (≈ 3.48 µM)	–	–
CC(CCC(=O)O)[C@H]1CCC2C3C(CC[C@@]21C)[C@@]1(C)CC[C@H](NCCN)C[C@H]1C[C@H]3O (stereo partly drawn) [drawing 64]	128 (≈ 294 µM)	128 (≈ 294 µM)	256 (≈ 589 µM)	–	–
COC(=O)CC[C@@H](C)[C@H]1CC[C@H]2[C@@H]3CC[C@@H]4C[C@H](NCCN)CC[C@]4(C)[C@H]3C[C@H](O)[C@]12C [Compound 416]	–	–	–	functionally similar to compound 1437	–
COC(=O)CCC(C)[C@H]1CCC2C3CC[C@@H]4C[C@H](NCCN)CC[C@]4(C)C3C[C@H](O)[C@@]21C (stereo partly drawn) [drawing 65]	8 (≈ 17.8 µM)	8 (≈ 17.8 µM)	32 (≈ 71.3 µM)	–	–
CC(CCC(=O)O)[C@H]1CCC2C3C(CC[C@@]21C)[C@@]1(C)CC[C@@H](NCCCNCCCCNCCCN)C[C@H]1C[C@H]3O (stereo partly drawn) [drawing 61]	64 (≈ 111 µM)	8 (≈ 13.9 µM)	8 (≈ 13.9 µM)	–	–
COC(=O)CCC(C)[C@H]1CCC2C3C(CC[C@@]21C)[C@@]1(C)CC[C@@H](NCCN)C[C@H]1C[C@H]3O (stereo partly drawn) [drawing 59]	16 (≈ 35.7 µM)	16 (≈ 35.7 µM)	16 (≈ 35.7 µM)	–	–
COC(=O)CCC(C)[C@H]1CCC2C3C[C@@H](O)[C@H]4C[C@H](NCCN)CC[C@]4(C)C3CC[C@@]21C (stereo partly drawn) [drawing 67]	32 to 64 (≈ 71.3 to 143 µM)	16 (≈ 35.7 µM)	8 (≈ 17.8 µM)	–	–
CC(CCC(=O)O)[C@H]1CCC2C3CC[C@@H]4C[C@H](NCCN)CC[C@]4(C)C3C[C@H](O)[C@@]21C (stereo partly drawn) [drawing 66]	64 (≈ 147 µM)	16 to 32 (≈ 36.8 to 73.6 µM)	32 (≈ 73.6 µM)	–	–
CC(C)CCCC(C)[C@H]1CCC2C3C(CC[C@@]21C)[C@@]1(C)CC[C@@H](N)C[C@@H]1C[C@H]3O (stereo partly drawn)	> 256	2 (≈ 4.95 µM)	2 (≈ 4.95 µM)	–	–
COC(=O)CC[C@@H](C)[C@H]1CC[C@H]2[C@@H]3C[C@@H](O)[C@H]4C[C@@H](NCCCNCCCCNCCCN)CC[C@]4(C)[C@H]3CC[C@]12C [Compound 466]	–	–	–	pharmacologic activity similar to that seen for FX 3	–
